Our source for the inhibition values is PMC3639963, “A New Class of Small Molecule Inhibitor of BMP Signaling” (PLoS ONE, 2013).

What all share (experiment): Nanosyn kinase profiling
What all share (type): biochemical
Common to all, as to details: read-out: Percentage inhibition; for inhibition at 0.1 µM: 0.1 µM inhibitor; for inhibition at 1 µM: 1 µM inhibitor

In one assay the target is T1, DCAMKL2 (Homo sapiens, UniProt Q8N568).
T1 construct: purchased Nanosyn (enzymatic panel); SGC in-house recombinant human kinases (DSF panel); Invitrogen (ALK1-6)
T1 sequence (Q8N568 1-766): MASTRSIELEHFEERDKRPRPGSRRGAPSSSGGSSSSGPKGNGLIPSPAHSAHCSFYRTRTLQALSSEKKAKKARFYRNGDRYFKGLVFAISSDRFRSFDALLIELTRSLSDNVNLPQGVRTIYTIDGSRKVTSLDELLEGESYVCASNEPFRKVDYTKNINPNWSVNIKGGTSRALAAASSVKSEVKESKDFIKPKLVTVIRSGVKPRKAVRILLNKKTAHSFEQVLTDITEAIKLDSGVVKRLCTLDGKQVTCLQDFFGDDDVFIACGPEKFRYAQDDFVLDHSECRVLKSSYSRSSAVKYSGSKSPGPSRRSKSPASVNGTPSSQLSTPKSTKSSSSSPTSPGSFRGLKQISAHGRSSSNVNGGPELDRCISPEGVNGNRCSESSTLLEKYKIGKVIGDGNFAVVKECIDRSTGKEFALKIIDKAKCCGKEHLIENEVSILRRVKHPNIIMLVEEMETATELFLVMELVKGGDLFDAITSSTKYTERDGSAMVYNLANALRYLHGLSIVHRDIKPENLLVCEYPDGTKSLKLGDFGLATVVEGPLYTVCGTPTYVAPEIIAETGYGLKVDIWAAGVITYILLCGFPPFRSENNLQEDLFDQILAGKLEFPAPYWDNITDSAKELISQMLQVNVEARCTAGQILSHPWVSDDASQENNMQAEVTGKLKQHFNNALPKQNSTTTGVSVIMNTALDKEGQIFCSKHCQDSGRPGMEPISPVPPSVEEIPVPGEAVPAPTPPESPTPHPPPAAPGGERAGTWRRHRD
In short, it runs like this:
(§1)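 Percent inhibition of each kinase was measured with the inhibitor at 0.1 µM and at 1 µM, as part of a 200-kinase human selectivity panel.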

In another assay the target is T2, ERBB4 (Homo sapiens, UniProt Q15303).
T2 construct: purchased Nanosyn (enzymatic panel); SGC in-house recombinant human kinases (DSF panel); Invitrogen (ALK1-6)
In short, it runs like this: as §1

In another assay the target is T3, LCK (Homo sapiens, UniProt P06239).
T3 construct: purchased Nanosyn (enzymatic panel); SGC in-house recombinant human kinases (DSF panel); Invitrogen (ALK1-6)
In short, it runs like this: as §1

The target in a further assay is T4, NEK7 (Homo sapiens, UniProt Q8TDX7).
T4 construct: purchased Nanosyn (enzymatic panel); SGC in-house recombinant human kinases (DSF panel); Invitrogen (ALK1-6)
The essentials:
as §1

In a further assay the target is T5, PAK2 (Homo sapiens, UniProt Q13177).
T5 construct: purchased Nanosyn (enzymatic panel); SGC in-house recombinant human kinases (DSF panel); Invitrogen (ALK1-6)
In short, it runs like this: as §1

For another assay, the target named is T6, PIM1 (Homo sapiens, UniProt P11309).
T6 construct: purchased Nanosyn (enzymatic panel); SGC in-house recombinant human kinases (DSF panel); Invitrogen (ALK1-6)
In short, it runs like this:
as §1

In another assay the target is T7, PRKD2 (Homo sapiens, UniProt Q9BZL6).
T7 construct: purchased Nanosyn (enzymatic panel); SGC in-house recombinant human kinases (DSF panel); Invitrogen (ALK1-6)
T7 sequence (Q9BZL6 1-878): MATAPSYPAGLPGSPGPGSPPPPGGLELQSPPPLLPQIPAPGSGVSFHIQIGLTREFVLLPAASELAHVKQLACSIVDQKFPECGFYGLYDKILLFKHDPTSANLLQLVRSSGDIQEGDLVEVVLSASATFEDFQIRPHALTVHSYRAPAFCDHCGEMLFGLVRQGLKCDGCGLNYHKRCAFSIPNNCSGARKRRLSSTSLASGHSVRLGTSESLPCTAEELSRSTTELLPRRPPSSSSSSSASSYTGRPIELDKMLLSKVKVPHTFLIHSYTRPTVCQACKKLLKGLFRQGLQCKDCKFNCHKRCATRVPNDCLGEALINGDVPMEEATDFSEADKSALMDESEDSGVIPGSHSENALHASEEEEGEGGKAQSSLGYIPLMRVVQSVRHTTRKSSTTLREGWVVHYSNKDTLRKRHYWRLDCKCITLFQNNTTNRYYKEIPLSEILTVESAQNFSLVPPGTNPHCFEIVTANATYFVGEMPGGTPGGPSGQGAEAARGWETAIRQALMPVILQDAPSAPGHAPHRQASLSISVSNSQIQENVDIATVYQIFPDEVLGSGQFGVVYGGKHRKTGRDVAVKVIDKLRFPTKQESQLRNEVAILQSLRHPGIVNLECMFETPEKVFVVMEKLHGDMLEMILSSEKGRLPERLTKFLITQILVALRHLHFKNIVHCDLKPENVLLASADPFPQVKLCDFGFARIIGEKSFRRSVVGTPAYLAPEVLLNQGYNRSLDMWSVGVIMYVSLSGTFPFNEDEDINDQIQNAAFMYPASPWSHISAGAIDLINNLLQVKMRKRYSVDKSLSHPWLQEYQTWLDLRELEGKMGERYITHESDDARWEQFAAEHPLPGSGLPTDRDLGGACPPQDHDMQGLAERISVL
In short, it runs like this: as §1

A further assay concerns the target T8, SYK (Homo sapiens, UniProt P43405).
T8 construct: purchased Nanosyn (enzymatic panel); SGC in-house recombinant human kinases (DSF panel); Invitrogen (ALK1-6)
In short, it runs like this:
as §1

Another assay addresses T9, p38β (Homo sapiens, UniProt Q15759).
T9 construct: purchased Nanosyn (enzymatic panel); SGC in-house recombinant human kinases (DSF panel); Invitrogen (ALK1-6)
In short, it runs like this:
as §1

T3 sequence (P06239 whole entry): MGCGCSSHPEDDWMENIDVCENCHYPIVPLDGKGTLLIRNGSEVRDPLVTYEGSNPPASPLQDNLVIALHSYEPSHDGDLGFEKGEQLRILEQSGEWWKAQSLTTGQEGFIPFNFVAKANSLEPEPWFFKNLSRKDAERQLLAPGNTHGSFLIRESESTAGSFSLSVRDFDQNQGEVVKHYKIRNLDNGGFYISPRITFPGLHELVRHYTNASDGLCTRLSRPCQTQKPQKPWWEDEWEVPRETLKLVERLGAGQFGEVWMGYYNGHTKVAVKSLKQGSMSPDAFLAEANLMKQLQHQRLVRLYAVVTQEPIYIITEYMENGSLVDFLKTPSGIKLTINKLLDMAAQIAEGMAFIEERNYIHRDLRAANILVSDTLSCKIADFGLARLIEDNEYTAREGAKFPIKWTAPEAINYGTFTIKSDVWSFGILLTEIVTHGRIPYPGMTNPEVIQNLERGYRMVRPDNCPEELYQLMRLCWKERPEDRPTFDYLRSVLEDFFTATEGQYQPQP
T4 sequence (Q8TDX7 whole entry): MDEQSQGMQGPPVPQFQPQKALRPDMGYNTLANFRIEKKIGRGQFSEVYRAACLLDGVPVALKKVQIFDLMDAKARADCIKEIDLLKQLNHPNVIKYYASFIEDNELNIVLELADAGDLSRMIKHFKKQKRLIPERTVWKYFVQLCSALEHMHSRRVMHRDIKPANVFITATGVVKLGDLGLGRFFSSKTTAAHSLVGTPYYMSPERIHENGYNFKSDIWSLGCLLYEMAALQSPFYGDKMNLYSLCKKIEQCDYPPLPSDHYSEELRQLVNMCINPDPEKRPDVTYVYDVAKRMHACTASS
T9 sequence (Q15759 whole entry): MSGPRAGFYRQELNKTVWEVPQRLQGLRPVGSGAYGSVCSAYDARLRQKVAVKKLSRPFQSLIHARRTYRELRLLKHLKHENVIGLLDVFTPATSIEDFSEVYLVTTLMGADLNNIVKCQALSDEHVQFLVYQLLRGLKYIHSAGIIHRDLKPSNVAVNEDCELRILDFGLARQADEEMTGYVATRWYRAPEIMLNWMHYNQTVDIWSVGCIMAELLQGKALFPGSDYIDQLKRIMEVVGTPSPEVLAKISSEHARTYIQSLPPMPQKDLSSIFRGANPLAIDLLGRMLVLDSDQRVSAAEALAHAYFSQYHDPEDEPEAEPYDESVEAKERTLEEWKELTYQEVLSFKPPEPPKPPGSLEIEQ
T5 sequence (Q13177 whole entry): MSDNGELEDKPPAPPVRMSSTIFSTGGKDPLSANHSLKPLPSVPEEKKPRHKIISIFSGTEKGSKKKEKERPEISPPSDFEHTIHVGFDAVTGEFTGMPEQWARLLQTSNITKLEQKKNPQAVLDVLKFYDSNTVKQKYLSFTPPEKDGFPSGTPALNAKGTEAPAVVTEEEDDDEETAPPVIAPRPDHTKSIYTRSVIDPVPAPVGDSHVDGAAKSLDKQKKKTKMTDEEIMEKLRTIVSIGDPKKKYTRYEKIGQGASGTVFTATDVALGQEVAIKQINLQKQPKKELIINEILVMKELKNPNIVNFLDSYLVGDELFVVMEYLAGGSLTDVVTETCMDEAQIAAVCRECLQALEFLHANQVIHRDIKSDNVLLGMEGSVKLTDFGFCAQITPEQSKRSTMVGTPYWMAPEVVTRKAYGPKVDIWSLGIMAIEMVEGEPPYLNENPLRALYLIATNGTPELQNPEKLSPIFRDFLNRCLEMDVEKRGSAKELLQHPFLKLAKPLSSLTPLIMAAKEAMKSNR
T6 sequence (P11309 whole entry): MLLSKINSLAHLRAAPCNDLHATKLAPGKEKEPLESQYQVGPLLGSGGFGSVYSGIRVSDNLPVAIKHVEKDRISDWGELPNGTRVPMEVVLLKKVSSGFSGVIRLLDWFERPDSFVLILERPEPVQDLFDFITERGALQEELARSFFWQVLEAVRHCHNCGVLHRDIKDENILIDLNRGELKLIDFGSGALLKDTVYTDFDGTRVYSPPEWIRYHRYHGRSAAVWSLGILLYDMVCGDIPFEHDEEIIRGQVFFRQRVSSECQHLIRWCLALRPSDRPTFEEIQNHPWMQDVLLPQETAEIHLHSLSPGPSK
T2 sequence (Q15303 26-1308): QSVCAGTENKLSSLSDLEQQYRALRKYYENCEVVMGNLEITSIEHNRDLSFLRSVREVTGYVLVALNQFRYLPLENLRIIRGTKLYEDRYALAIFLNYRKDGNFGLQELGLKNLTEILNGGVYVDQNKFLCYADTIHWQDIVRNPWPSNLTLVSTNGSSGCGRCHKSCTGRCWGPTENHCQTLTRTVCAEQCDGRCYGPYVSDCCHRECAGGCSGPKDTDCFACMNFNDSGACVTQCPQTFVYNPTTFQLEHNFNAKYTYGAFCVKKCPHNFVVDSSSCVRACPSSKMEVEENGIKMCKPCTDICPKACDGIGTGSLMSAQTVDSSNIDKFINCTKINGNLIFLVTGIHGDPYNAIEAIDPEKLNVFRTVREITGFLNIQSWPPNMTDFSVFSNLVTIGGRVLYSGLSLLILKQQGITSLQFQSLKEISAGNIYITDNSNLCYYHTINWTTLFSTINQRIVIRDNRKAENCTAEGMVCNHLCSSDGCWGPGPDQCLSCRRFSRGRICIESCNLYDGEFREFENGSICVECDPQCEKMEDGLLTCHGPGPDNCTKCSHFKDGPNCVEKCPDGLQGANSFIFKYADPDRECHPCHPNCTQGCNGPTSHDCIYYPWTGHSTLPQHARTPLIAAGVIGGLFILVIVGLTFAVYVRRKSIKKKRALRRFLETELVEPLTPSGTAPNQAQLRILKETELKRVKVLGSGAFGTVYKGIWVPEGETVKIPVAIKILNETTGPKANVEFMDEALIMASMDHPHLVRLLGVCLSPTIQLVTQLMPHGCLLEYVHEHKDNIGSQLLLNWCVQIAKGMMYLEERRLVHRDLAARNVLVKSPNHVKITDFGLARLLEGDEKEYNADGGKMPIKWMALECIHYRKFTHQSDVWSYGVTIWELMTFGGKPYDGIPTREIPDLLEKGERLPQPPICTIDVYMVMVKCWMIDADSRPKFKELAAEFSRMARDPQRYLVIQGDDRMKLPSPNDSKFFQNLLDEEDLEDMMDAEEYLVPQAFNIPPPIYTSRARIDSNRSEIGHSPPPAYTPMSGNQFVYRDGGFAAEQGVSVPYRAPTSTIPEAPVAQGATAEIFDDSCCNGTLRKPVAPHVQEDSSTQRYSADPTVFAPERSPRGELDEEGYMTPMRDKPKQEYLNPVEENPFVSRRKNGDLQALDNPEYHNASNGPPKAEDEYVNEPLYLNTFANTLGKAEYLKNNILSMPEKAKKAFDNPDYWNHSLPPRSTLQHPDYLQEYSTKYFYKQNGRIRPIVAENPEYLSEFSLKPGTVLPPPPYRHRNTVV

As to `c1ccc2c(-c3cnn4cc(-c5ccc(N6CCNCC6)cc5)cnc34)ccnc2c1` [LDN-193189], the inhibition at 0.1 µM is 0.8% on DCAMKL2; 6.1% at ERBB4; 12% on LCK; 7.9% on NEK7; 0% at PAK2; -1% on PIM1. The inhibition at 0.1 µM at PRKD2 was 4.5%; on SYK it was -1%; at p38β, 0.4%. The inhibition at 1 µM at DCAMKL2 was 3.4%; at ERBB4 it was 11%; on LCK it was 46%; on NEK7 it was 1.7%; at PAK2, 0%; at PIM1 it was -1%. Moreover, the inhibition at 1 µM at PRKD2 is 13%; at SYK it was -12%; on p38β it was 1.5%.
Take `COc1cc(-c2cc(-c3cccc(O)c3)cnc2N)cc(OC)c1OC` [K02288, 3-[6-amino-5-(3,4,5-trimethoxy-phenyl)-pyridin-3-yl]-phenol]: the inhibition at 0.1 µM is -2% on DCAMKL2; -5% at ERBB4; 13% on LCK; 0.2% on NEK7; -1% at PAK2; 0.2% on PIM1. Besides, the inhibition at 0.1 µM on PRKD2 was determined as 0.6%; at SYK, 0%; at p38β, 0%. Besides, the inhibition at 1 µM at DCAMKL2 was 2.3%; on ERBB4, 0.9%; at LCK, 58%; on NEK7, -3%; at PAK2 it was -1%; on PIM1, 1.5%. Also, the inhibition at 1 µM on PRKD2 was 6.6%; on SYK, -2%; on p38β, 9.7%.
